# From patent publication US20250122144A1, “Compound and Molded Body Comprising Same” (LG Chem, Ltd., priority 2022, published 2025)
# Test: Evaluation of heat resistance by thermogravimetric analyzer (TGA), primary thermal decomposition temperature
# Format: physicochemical
# Details: N2 atmospheric environment, FIG. 9
# Procedure: In this experiment, the evaluation of heat resistance was defined as an extrapolated intersection point (primary thermal decomposition temperature) between a starting mass reference line and the tangent line of the maximum slope point in the first mass reduction section of a mass loss curve measured by a thermogravimetric analyzer (TGA) in an N2 atmospheric environment.
# In the present disclosure, it is determined that when the primary thermal decomposition temperature of the compound has a value higher than the primary thermal decomposition temperature of the material before anion substitution, the heat resistance has increased.
Td (thermal decomposition temperature),heat resistance compared with the material before anion substitution,Compound
about 230 °C,–,C=C(C)C(=O)OCC[N+](C)(C)CCCCCCCCCC.[Br-] [Comparative Example 4-1]
–,heat resistance is improved,C=C(C)C(=O)OCC[N+](C)(C)CCCCCCCCCC.O=S(=O)([O-])O [Example 4-1]
